Experimental findings from patent publication US6262230A, “Analogs of thymosin α1” (SciClone Pharmaceuticals Inc., priority 1994, dated 2001) are described below.

Values joined by “and” are separate entries in the source; they are usually repeats but may differ in a detail not shown here. Identical values can stand only once.

This assay deals with endotoxic mice (lipopolysaccharide endotoxin from E. coli at 60 mg/kg). As to the kind of experiment: Survival of endotoxic mice following lethal endotoxin dose. It counts as in vivo, Swiss-Webster mice. As to conditions: endotoxin 60 mg/kg, 3 injections of 100 μg peptide at 5 minutes, 2 and 4 hours post endotoxin, alive at 0 hr: 10 (Tα1-N16-NH2 groups), 8 ([Glp]-Tα1, Tα1-Gly-NH2); for Number of Mice Alive Following Lethal Endotoxin Dose, 24 hr: endotoxin alone 4 of 10; for Number of Mice Alive Following Lethal Endotoxin Dose, 48 hr / Number of Mice Alive Following Lethal Endotoxin Dose, 72 hr / Number of Mice Alive Following Lethal Endotoxin Dose, 4 days / Number of Mice Alive Following Lethal Endotoxin Dose, 5 days: endotoxin alone 3 of 10. Here is the method: Swiss-Webster mice were treated in five groups: endotoxic mice (mice injected with lipopolysaccharide endotoxin from E. coli at 60 mg/kg) which were otherwise untreated, and endotoxic mice treated with 3 injections of 100 μg Thymosin α1 -N16 Amide (Tα1 -N16 -NH2) treated in two groups, Pyroglutamyl-desacetyl Thymosin α1 ([glp]-Tα1), or Thymosin α1 -Gly Amide (Tα1 -gly-NH2) at 5 minutes, 2 and 4 hours post administration of the endotoxin.

Turning to “Ac-Ser-Asp-Ala-Ala-Val-Asp-Thr-Ser-Ser-Glu-Ile-Thr-Thr-Lys-Asp-Leu-Lys-Glu- Lys-Lys-Glu-Val-Val-Glu-Glu-Ala-Glu-Asn-Gly-NH2 (Ac-SDAAVDTSSEITTKDLKEKKEVVEEAENG-NH2) [Tα1 -Gly-NH2]”, the “Number of Mice Alive Following Lethal Endotoxin Dose, 24 hr” value came to 8; the “Number of Mice Alive Following Lethal Endotoxin Dose, 48 hr” value was 8; the “Number of Mice Alive Following Lethal Endotoxin Dose, 72 hr” value stood at 8; the “Number of Mice Alive Following Lethal Endotoxin Dose, 4 days” value came to 8. Also, the “Number of Mice Alive Following Lethal Endotoxin Dose, 5 days” value turned out to be 8.

“Ac-Ser-Asp-Ala-Ala-Val-Asp-Thr-Ser-Ser-Glu-Ile-Thr-Thr-Lys-Asp-Leu-NH2 (Ac-SDAAVDTSSEITTKDL-NH2) [Tα1 -N16 --NH2]”: the “Number of Mice Alive Following Lethal Endotoxin Dose, 24 hr” value was 5 and 8; the “Number of Mice Alive Following Lethal Endotoxin Dose, 48 hr” value was 4 and 8; the “Number of Mice Alive Following Lethal Endotoxin Dose, 72 hr” value is 4 and 7; the “Number of Mice Alive Following Lethal Endotoxin Dose, 4 days” value is 4 and 7. Further, the “Number of Mice Alive Following Lethal Endotoxin Dose, 5 days” value was 4 and 7.
